The values that follow come from PubChem BioAssay AID1259407 (Chemical Carcinogenesis Research Information System (CCRIS), 2018).

Activity calls are given as the source filed them. The rule behind the calls is not given here.

This series concerns CCRIS mutagenicity, Ames/micronucleus/aberration tests. The series can be described thus: CCRIS mutagenicity studies. The settings on record: Test System: AMES SALMONELLA TYPHIMURIUM
[1] abbreviates: Strain/Indicator: TA98, Metabolic Activation: NONE, Method: STANDARD PLATE.
[2] abbreviates: Strain/Indicator: TA100, Metabolic Activation: NONE, Method: STANDARD PLATE.
The mark [3] stands for this setting: Strain/Indicator: TA1535, Metabolic Activation: NONE, Method: STANDARD PLATE.
Setting [4] is: Strain/Indicator: TA1537, Metabolic Activation: NONE, Method: STANDARD PLATE.
The mark [5] stands for this setting: Strain/Indicator: TA1538, Metabolic Activation: NONE, Method: STANDARD PLATE.

On to `C=CC(=O)OCC(C)(C)COC(=O)C=C`, for which the mutagenic call is “inactive; negative” under setting [1]; “inactive; negative” (Strain/Indicator: TA98, Metabolic Activation: RAT, LIVER, S-9, AROCLOR 1254, Method: STANDARD PLATE); “inactive; negative” (Strain/Indicator: TA98, Metabolic Activation: RAT, LIVER, S-9, SODIUM PHENOBARBITAL, Method: STANDARD PLATE); “inactive; negative” under setting [2]; “inactive; negative” (Strain/Indicator: TA100, Metabolic Activation: RAT, LIVER, S-9, AROCLOR 1254, Method: STANDARD PLATE); “inactive; negative” (Strain/Indicator: TA100, Metabolic Activation: RAT, LIVER, S-9, SODIUM PHENOBARBITAL, Method: STANDARD PLATE). In addition, the mutagenic call by setting is: under setting [3], “inactive; negative”; (Strain/Indicator: TA1535, Metabolic Activation: RAT, LIVER, S-9, AROCLOR 1254, Method: STANDARD PLATE) “inactive; negative”; (Strain/Indicator: TA1535, Metabolic Activation: RAT, LIVER, S-9, SODIUM PHENOBARBITAL, Method: STANDARD PLATE) “inactive; negative”; under setting [4], “inactive; negative”; (Strain/Indicator: TA1537, Metabolic Activation: RAT, LIVER, S-9, AROCLOR 1254, Method: STANDARD PLATE) “inactive; negative”; (Strain/Indicator: TA1537, Metabolic Activation: RAT, LIVER, S-9, SODIUM PHENOBARBITAL, Method: STANDARD PLATE) “inactive; negative”. The mutagenic call under setting [5] was “inactive; negative”; the mutagenic call (Strain/Indicator: TA1538, Metabolic Activation: RAT, LIVER, S-9, AROCLOR 1254, Method: STANDARD PLATE) was “inactive; negative”; the mutagenic call (Strain/Indicator: TA1538, Metabolic Activation: RAT, LIVER, S-9, SODIUM PHENOBARBITAL, Method: STANDARD PLATE) is “inactive; negative”.

Turning to `CCN(CCCl)CCCNc1c2ccccc2nc2c1ccc1cccnc12`, the mutagenic call under setting [1] is “active; positive”; the mutagenic call under setting [2] is “active; positive”; the mutagenic call under setting [3] is “inactive; negative”; the mutagenic call (Strain/Indicator: TA1536, Metabolic Activation: NONE, Method: STANDARD PLATE) is “active; positive”; the mutagenic call under setting [4] is “active; positive”; the mutagenic call under setting [5] was “active; positive”.

For the compound `C1CSCN1`, the mutagenic call (Strain/Indicator: TA100, Metabolic Activation: NONE, Method: PREINCUBATION) is “active; positive”.
